Active and inactive are the calls of the source. The calls are words filed in the database; no cut-off is given here.
Columns and labels:
[1] = Growth inhibition of ALK-positive human SUP-M2 cells by MTS assay; type: functional, cell-based
[2] = target: T1, ALK tyrosine kinase receptor (Homo sapiens, UniProt Q9UM73); assay: Inhibition of NPM-ALK autophosphorylation in human KARPAS299 cells; type: cell-based; conditions: karpas-299
K562 = assay: Induction apoptosis in ALK-negative human K562 cells assessed as activation of caspase 3/7 by fluorometric assay; type: functional, cell-based
KARPAS-299 = assay: Growth inhibition of ALK-positive human KARPAS299 cells by MTS assay; type: functional, cell-based
Mus musculus [3] = assay: Clearance with respect to hepatic blood flow in SCID mouse at 1 mg/kg, iv; type: ADME, organism-based, Liver; design: dose 1 mg/kg, route intravenous; conditions: in vivo
[4] = AUC in SCID mouse at 1 mg/kg, iv; type: ADME, organism-based; design: dose 1 mg/kg, route intravenous; conditions: plasma
[5] = Half life in SCID mouse at 1 mg/kg, iv; type: ADME, organism-based; design: dose 1 mg/kg, route intravenous; conditions: in vivo
[6] = Half life in SCID mouse at 10 mg/kg, po; type: ADME, organism-based; design: dose 10 mg/kg, route oral; conditions: in vivo
[7] = Oral bioavailability in SCID mouse at 10 mg/kg; type: ADME, organism-based; conditions: in vivo
[8] = Plasma clearance in Sprague-Dawley rat at 1 mg/kg, iv by LC/MS/MS analysis; type: ADME, organism-based; design: dose 1 mg/kg, route intravenous
[9] = Volume of distribution in Sprague-Dawley rat at 1 mg/kg, iv; type: ADME, organism-based; design: dose 1 mg/kg, route intravenous; conditions: in vivo
[10] = target: Serine/threonine-protein kinase PLK4 (Homo sapiens) (UniProt O00444); assay: Inhibition of PLK4 at 1 uM
[11] = target: Protein-tyrosine kinase 2-beta (Homo sapiens) (UniProt Q14289); assay: Inhibition of PYK2 at 0.1 uM
[12] = target: Proto-oncogene tyrosine-protein kinase ROS (Homo sapiens) (UniProt P08922); assay: Inhibition of ROS at 0.1 uM
[13] = target: Ribosomal protein S6 kinase alpha-1 (Homo sapiens) (UniProt Q15418); assay: Inhibition of RPS6KA1 at 1 uM
[14] = target: Ribosomal protein S6 kinase alpha-2 (Homo sapiens) (UniProt Q15349); assay: Inhibition of RPS6KA2 at 0.1 uM
[15] = target: Tyrosine-protein kinase Srms (Homo sapiens) (UniProt Q9H3Y6); assay: Inhibition of SRMS at 0.1 uM
[16] = target: Serine/threonine-protein kinase 33 (Homo sapiens) (UniProt Q9BYT3); assay: Inhibition of STK33 at 1 uM
Chain of Serine/threonine-protein kinase 33 (Homo sapiens) (Q9BYT3 whole entry, looked up): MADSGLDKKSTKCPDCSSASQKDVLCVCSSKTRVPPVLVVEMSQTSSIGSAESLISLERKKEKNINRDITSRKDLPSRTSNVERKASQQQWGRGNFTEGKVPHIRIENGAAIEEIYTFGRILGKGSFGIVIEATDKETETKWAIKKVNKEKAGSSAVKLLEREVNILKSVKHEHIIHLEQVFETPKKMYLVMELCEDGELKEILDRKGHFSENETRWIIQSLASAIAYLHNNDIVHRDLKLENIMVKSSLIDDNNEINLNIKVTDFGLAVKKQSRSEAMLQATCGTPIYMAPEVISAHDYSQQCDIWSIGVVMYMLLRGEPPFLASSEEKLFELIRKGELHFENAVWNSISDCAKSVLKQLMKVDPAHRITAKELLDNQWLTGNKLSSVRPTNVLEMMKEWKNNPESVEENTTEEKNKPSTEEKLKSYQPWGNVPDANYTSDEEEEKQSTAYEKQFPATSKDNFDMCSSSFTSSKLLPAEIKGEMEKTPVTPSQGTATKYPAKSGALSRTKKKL

[17] = target: Serine/threonine-protein kinase 33 (Homo sapiens) (UniProt Q9BYT3); assay: Inhibition of STK33 at 0.1 uM
[18] = target: Non-receptor tyrosine-protein kinase TNK1 (Homo sapiens) (UniProt Q13470); assay: Inhibition of TNK1 at 1 uM
Chain of Non-receptor tyrosine-protein kinase TNK1 (Homo sapiens) (Q13470 whole entry): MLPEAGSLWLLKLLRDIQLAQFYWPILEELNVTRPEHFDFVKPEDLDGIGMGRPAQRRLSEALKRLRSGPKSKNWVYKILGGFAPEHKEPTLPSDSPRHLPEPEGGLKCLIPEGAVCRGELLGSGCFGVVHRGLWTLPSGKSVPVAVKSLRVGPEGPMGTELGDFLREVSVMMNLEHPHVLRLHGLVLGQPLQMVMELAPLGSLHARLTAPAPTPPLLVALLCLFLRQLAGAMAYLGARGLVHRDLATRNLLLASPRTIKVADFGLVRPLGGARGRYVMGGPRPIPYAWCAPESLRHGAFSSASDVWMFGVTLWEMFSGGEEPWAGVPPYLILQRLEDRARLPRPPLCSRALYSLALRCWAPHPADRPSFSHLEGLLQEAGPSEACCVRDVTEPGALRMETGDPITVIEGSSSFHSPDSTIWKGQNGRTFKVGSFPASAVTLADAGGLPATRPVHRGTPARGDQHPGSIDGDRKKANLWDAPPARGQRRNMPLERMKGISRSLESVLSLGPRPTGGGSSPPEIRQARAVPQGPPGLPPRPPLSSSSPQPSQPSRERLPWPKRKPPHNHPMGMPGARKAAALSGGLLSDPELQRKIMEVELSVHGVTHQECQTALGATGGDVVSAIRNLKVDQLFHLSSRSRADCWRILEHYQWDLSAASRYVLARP

[19] = target: Non-receptor tyrosine-protein kinase TNK1 (Homo sapiens) (UniProt Q13470); assay: Inhibition of TNK1 at 0.1 uM
[20] = target: Serine/threonine-protein kinase ULK3 (Homo sapiens) (UniProt Q6PHR2); assay: Inhibition of ULK3 at 1 uM
[21] = target: Serine/threonine-protein kinase 32B (Homo sapiens) (UniProt Q9NY57); assay: Inhibition of YANK2 at 1 uM
Chain of Serine/threonine-protein kinase 32B (Homo sapiens) (Q9NY57 whole entry): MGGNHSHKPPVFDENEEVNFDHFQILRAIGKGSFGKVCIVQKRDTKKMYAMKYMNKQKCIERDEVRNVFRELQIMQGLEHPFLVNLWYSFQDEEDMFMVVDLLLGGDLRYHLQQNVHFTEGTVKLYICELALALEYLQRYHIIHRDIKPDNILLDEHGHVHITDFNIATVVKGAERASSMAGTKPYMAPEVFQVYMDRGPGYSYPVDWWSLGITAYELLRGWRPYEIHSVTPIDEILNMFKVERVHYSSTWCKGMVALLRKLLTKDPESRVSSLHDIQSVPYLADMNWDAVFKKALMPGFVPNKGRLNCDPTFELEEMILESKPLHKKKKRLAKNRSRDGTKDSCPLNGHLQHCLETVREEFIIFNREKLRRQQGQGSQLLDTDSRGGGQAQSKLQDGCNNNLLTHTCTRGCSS

[22] = target: Serine/threonine-protein kinase 32B (Homo sapiens) (UniProt Q9NY57); assay: Inhibition of YANK2 at 0.1 uM
Mus musculus [23] = assay: Toxicity in SCID mouse xenografted with human SUP-M2 cells at 30 mg/kg, po BID for 12 days; type: organism-based; design: dose 30 mg/kg, route oral; conditions: in vivo, 288 h
Mus musculus [24] = assay: Toxicity in SCID mouse xenografted with human SUP-M2 cells assessed as weight loss at 10 mg/kg, po BID for 12 days; type: organism-based; design: dose 10 mg/kg, route oral; conditions: in vivo, 288 h
[25] = Ratio of drug level in tumor to plasma in SCID mouse; type: ADME; conditions: tumor and plasma
SUP-M2 = assay: Antitumor activity against ALK-positive human SUP-M2 cells xenografted in po dosed SCID mouse bid after 12 days; type: functional, organism-based
[26] = Oral bioavailability in Sprague-Dawley rat at 5 mg/kg; type: ADME, organism-based; conditions: in vivo
Canis familiaris = assay: Clearance with respect to hepatic blood flow in beagle dog at 1 mg/kg, iv; type: ADME, organism-based, Canis lupus familiaris, Liver; design: dose 1 mg/kg, route intravenous; conditions: in vivo
[27] = AUC in beagle dog at 1 mg/kg, iv; type: ADME, organism-based, Canis lupus familiaris; design: dose 1 mg/kg, route intravenous; conditions: plasma
[28] = Plasma concentration in SCID mouse xenografted with ALK-positive human SUP-M2 cells at 10 mg/kg, po bid for 12 days; type: ADME, organism-based; design: dose 10 mg/kg, route oral
[29] = Drug uptake in tumor lysates in SCID mouse xenografted with ALK-positive human SUP-M2 cells at 30 mg/kg, po bid for 12 days; type: ADME, organism-based, Neoplasm; design: dose 30 mg/kg, route oral; conditions: read-out: Drug uptake
[30] = Antitumor activity against ALK-positive human SUP-M2 cells xenografted in SCID mouse assessed as partial tumor regression at 30 mg/kg, po bid after 12 days; type: functional
[31] = system: Receptor-type tyrosine-protein kinase FLT3 (Homo sapiens), P36888 [D835H]; assay: Inhibition of FLT3 D835H mutant at 1 uM
[32] = target: Tyrosine-protein kinase Fer (Homo sapiens) (UniProt P16591); assay: Inhibition of FER at 0.1 uM
Chain of Tyrosine-protein kinase Fer (Homo sapiens) (P16591 whole entry, looked up): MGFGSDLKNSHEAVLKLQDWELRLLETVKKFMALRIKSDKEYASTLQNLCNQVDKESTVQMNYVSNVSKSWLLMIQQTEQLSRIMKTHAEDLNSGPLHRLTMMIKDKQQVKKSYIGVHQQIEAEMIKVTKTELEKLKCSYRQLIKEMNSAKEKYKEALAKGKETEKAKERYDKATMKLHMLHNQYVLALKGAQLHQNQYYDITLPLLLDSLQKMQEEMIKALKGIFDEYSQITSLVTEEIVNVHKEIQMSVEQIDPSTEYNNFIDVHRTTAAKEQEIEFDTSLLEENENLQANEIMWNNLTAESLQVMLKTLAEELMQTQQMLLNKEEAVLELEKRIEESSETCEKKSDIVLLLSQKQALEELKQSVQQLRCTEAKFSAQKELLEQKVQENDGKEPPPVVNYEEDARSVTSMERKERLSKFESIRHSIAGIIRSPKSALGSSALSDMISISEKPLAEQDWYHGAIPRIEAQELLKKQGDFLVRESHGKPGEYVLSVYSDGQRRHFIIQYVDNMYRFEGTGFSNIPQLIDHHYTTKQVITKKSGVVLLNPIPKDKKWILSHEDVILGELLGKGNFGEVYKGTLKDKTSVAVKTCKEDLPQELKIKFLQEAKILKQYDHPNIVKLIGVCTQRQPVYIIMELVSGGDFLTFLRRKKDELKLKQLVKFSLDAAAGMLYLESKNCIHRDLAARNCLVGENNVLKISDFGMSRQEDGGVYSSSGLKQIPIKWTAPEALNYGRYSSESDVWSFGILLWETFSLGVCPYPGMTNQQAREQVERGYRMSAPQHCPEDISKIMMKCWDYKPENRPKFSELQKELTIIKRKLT

[33] = target: Tyrosine-protein kinase Fer (Homo sapiens) (UniProt P16591); assay: Inhibition of FER at 1 uM
[34] = system: Epidermal growth factor receptor (Homo sapiens), P00533 [L858R]; assay: Inhibition of EGFR L858R mutant at 1 uM; type: protein assay
[35] = target: Epidermal growth factor receptor (Homo sapiens) (UniProt P00533); assay: Inhibition of EGFR at 1 uM
[36] = target: Macrophage colony-stimulating factor 1 receptor (Homo sapiens) (UniProt P07333); assay: Inhibition of CSF1R at 0.1 uM
Chain of Macrophage colony-stimulating factor 1 receptor (Homo sapiens) (P07333 whole entry): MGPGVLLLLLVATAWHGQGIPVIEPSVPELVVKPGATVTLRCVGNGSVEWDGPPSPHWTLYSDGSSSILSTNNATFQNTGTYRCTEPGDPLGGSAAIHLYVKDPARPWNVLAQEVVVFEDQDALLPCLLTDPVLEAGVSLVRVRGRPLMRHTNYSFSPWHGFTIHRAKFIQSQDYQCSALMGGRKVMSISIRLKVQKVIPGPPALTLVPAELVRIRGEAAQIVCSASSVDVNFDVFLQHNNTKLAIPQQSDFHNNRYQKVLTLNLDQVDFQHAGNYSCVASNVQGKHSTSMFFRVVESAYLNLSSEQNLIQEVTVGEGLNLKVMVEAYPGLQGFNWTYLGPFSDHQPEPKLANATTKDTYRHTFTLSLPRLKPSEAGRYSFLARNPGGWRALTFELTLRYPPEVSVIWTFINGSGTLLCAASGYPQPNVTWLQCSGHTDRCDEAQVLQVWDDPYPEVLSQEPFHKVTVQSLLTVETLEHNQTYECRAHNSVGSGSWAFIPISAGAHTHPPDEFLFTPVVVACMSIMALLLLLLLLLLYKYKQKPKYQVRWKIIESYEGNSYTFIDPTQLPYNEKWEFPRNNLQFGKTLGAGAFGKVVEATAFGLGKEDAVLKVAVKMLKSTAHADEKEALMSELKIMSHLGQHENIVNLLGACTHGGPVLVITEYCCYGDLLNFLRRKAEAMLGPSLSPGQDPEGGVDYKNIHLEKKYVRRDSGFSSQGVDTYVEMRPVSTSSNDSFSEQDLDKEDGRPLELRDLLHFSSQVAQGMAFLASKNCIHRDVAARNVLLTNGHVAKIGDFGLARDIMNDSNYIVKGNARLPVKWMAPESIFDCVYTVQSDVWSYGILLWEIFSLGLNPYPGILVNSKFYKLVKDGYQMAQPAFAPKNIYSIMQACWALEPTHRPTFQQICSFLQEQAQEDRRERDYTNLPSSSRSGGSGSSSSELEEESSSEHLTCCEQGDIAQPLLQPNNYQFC

[37] = target: Macrophage colony-stimulating factor 1 receptor (Homo sapiens) (UniProt P07333); assay: Inhibition of CSF1R at 1 uM
[38] = target: Mitogen-activated protein kinase kinase kinase 5 (Homo sapiens) (UniProt Q99683); assay: Inhibition of ASK1 at 1 uM
[39] = target: NUAK family SNF1-like kinase 1 (Homo sapiens) (UniProt O60285); assay: Inhibition of ARK5 at 1 uM
[40] = target: Vascular endothelial growth factor receptor 3 (Homo sapiens) (UniProt P35916); assay: Inhibition of FLT4 at 1 uM
[41] = target: Cyclin-G-associated kinase (Homo sapiens) (UniProt O14976); assay: Inhibition of GAK at 1 uM
[42] = target: Mitogen-activated protein kinase 8 (Homo sapiens) (UniProt P45983); assay: Inhibition of JNK1 at 0.1 uM
[43] = target: Mitogen-activated protein kinase 9 (Homo sapiens) (UniProt P45984); assay: Inhibition of JNK2 at 0.1 uM
[44] = system: Mast/stem cell growth factor receptor Kit (Homo sapiens), P10721 [D816V]; assay: Inhibition of KIT D816V mutant at 0.1 uM
[45] = target: Leukocyte tyrosine kinase receptor (Homo sapiens) (UniProt P29376); assay: Inhibition of LTK at 1 uM
[46] = target: Serine/threonine-protein kinase 3 (Homo sapiens) (UniProt Q13188); assay: Inhibition of MST2 at 1 uM
[47] = target: Serine/threonine-protein kinase PAK 3 (Homo sapiens) (UniProt O75914); assay: Inhibition of PAK3 at 1 uM
[48] = target: T1, ALK tyrosine kinase receptor; conditions: 0.1 uM
Description: Inhibition of ALK at 0.1 uM

T1 sequence (Q9UM73 19-1620 limits assumed): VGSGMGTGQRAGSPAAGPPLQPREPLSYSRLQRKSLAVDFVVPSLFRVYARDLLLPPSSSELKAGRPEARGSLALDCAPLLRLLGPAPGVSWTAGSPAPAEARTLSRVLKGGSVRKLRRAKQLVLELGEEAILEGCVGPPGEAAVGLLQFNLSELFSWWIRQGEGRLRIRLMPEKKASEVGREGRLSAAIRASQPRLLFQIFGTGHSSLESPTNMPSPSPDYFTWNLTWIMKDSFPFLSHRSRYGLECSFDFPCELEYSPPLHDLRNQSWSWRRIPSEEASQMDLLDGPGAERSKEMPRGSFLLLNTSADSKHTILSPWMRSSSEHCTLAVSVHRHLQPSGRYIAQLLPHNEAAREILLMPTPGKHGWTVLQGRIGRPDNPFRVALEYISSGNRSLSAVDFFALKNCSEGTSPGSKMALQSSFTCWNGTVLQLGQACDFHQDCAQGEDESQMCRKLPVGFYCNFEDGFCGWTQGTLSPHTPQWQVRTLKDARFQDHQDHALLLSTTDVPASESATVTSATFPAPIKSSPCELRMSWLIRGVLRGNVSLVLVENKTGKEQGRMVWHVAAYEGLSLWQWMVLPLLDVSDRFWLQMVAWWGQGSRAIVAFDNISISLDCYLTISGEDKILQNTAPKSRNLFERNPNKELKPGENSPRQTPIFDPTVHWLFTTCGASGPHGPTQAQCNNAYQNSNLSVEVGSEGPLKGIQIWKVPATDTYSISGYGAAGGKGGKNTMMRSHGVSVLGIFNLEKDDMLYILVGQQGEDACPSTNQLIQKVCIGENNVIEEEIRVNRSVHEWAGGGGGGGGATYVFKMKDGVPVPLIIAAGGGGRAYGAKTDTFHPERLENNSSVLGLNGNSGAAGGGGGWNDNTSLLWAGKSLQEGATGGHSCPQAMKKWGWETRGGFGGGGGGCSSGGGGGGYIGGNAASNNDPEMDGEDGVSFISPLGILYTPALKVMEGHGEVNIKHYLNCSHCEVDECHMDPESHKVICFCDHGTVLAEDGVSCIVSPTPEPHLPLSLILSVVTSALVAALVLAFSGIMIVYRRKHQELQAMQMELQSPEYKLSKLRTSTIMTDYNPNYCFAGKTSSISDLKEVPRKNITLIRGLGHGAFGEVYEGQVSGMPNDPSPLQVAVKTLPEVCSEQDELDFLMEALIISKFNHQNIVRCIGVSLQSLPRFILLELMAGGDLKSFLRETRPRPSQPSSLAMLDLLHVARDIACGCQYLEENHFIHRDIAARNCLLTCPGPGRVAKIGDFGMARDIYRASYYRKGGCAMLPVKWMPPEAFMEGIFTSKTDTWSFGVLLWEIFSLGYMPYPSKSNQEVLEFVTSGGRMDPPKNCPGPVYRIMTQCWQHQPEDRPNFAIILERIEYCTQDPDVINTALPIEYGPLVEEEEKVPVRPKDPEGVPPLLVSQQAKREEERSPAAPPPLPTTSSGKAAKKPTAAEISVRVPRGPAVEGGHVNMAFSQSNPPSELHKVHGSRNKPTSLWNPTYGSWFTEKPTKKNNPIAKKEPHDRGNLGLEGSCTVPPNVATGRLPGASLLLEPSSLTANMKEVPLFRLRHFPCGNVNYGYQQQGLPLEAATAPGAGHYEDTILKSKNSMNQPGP

CCN1C(=O)CCCc2c1ccc(Nc1ncc(Cl)c(N[C@H]3[C@@H](C(N)=O)[C@@H]4C=C[C@H]3C4)n1)c2OC
EC50 [1]: 200 nM | IC50 [2]: 45 nM | Activity (K562): inactive | EC50 (KARPAS-299): 200 nM | CL (Mus musculus [3]): 41% | AUC [4]: 446 ng·h/mL | half-life [5]: 0.3 h | half-life [6]: 2.4 h | bioavailability [7]: 32% | clearance [8]: 13 mL/min/kg | Vd [9]: 0.9 L/kg | inhibition [10]: 95% | inhibition [11]: 90% | inhibition [12]: 77% | inhibition [13]: 100% | inhibition [14]: < 50% | inhibition [15]: < 50% | inhibition [16]: 99% | inhibition [17]: 84% | inhibition [18]: 100% | inhibition [19]: 93% | inhibition [20]: 94% | inhibition [21]: 92% | inhibition [22]: < 50% | Activity (Mus musculus [23]): Non-toxic | Activity (Mus musculus [24]): Non-toxic | Kp [25]: 1.3 | Activity (SUP-M2): Dose-dependent effect | bioavailability [26]: 64% | CL (Canis familiaris): 58% | AUC [27]: 773 ng·h/mL | concentration at 288 h [28]: 337 ng/mL | concentration at 288 h [29]: 405 ng/g | Activity [30]: 100% | inhibition [31]: 95% | inhibition [32]: 93% | inhibition [33]: 100% | inhibition [34]: 92% | inhibition [35]: 96% | inhibition [36]: < 50% | inhibition [37]: 91% | inhibition [38]: 99% | inhibition [39]: 92% | inhibition [40]: 100% | inhibition [41]: 91% | inhibition [42]: 81% | inhibition [43]: < 50% | inhibition [44]: 94% | inhibition [45]: 98% | inhibition [46]: 91% | inhibition [47]: 90% | inhibition [48]: 89%

— ChEMBL document CHEMBL2040771, “Discovery of a potent inhibitor of anaplastic lymphoma kinase with in vivo antitumor activity” (ACS Med Chem Lett, 2010)
